Measurements: patent US20260250325A1, “Antiviral Polypeptide Membrane Fusion Inhibitor, and Preparation Method and Application Thereof” (priority 2025, published 2026)
Where a SMILES comes first, the peptide text is derived from it. The star is where a group is joined. Succinyl(4-O-cholesteryl) = CC(C)CCC[C@@H](C)[C@H]1CC[C@H]2[C@@H]3CC=C4C[C@@H](OC(=O)CCC(=O)*)CC[C@]4(C)[C@H]3CC[C@]12C

Columns and labels:
RSV A2 virus strain [1] = assay: Mouse RSV A2 challenge protection, lung viral titer by plaque method; format: in vivo, BALB/c mice; settings: for Mean (PFU/g lung): BALB/c mice, tracheal nebulization 1 mg/kg QD for 5 days, lung collected 2 h after final administration on Day 4; for effect on viral titer in lung tissue (in words): mice, tracheal nebulization once daily for 5 days
Method: Female BALB/c mice were from Shanghai Yishang Biotechnology Co., Ltd. HEp- 2 were from the ATCC, with a catalog number CCL-23. The cells were cultured in a DMEM medium solution in which 10% (v/v) fetal bovine serum and 1% penicillin and streptomycin were added. The RSV A2 virus strain was from the ATCC, with a catalog number VR-1540.
Eight-week-old female BALB/c mice were grouped based on body weight (n=6). All animals were intranasally challenged with RSV on Day 0 at a challenge dosage of 1×10^6 pfu (20 μL) per animal. Administration began 1 h after Day 0 challenge; the polypeptide sample, positive control, and solvent control were administered via tracheal nebulization once daily for 5 consecutive days (see Table 3 below for administration dosage and administration frequency). Lung tissue was collected from all animals 2 h after the final administration on Day 4; left lung tissue was rapidly frozen in a virus protection solution with a 10-fold volume and stored below −70° C.; and a viral titer was detected by using a plaque method.
For analysis, the lung RSV A2 virus was determined by performing a tissue homogenate viral load plaque method. In short, on the day prior to sample detection, the HEp-2 cells were inoculated into a 12-well plate (spreading density being 0.3×10^6 cells/mL, with 1000 μL of cell suspension per well) according to a standard HEp-2 cell culture operation procedure. On the day of incubation, the supernatant was taken from the tissue sample that was homogenized using a tissue homogenizer (maintaining a low-temperature environment), and the supernatant was taken after centrifugation. The tissue homogenate sample was diluted with serum-free DMEM, and inoculated into a 12-well plate at a final volume of 400 μL. After 2 h of incubation, the homogenate supernatant was discarded, and 1.5 mL of a covering layer (cell culture medium containing 1% soft agar) was added to each well and cultured in the incubator for approximately 72 h. The covering layer was discarded, the cells were fixed, blocking was performed by using a blocking solution, dyeing was performed with HRP-RSVG, development and air drying were terminated with pure water. Colored spots on the well plate were counted by using a fluorescent (enzyme-linked) immunoassay spot analyzer, and the viral titer was expressed as a plaque-forming unit per gram of tissue (PFU/g). The viral titer was calculated as an arithmetic mean±standard error of all animals in a group.
One hour after RSV A2 challenge in mice, compounds 13, 14, 17, 19, 20, 21, 26, 27, 28, and 40 were administered via tracheal nebulization once daily for 5 consecutive days; and 2 h after the final administration, lung tissue was collected from all groups for viral plaque detection, and results were shown in Table 3.

RSV A2 virus strain [2] = assay: Cotton rat RSV A2 challenge protection, lung nucleic acid load by RT-qPCR; format: in vivo; settings: cotton rats; for Nucleic acid load RT-qPCR detection results Log10 mean (copy number/gram of lung tissue): tracheal nebulization 1 mg/kg QD for 5 days, lung collected 2 h after final administration on Day 4; for effect on viral titer in lung tissue (in words): tracheal nebulization once daily for 5 days
Source text: Female cotton rats were from Shanghai Yishang Biotechnology Co., Ltd. The RSV A2 virus strain was from the ATCC, with a catalog number VR-1540. RT-qPCR primer+probe primer were supplied by Qingke Biotechnology Co., Ltd, with batch number TSP20241227-025-00187. The RT-qPCR standard was provided by Vazyme, with batch number 20241008.
Female cotton rats (6-8 weeks old) were grouped based on body weight (n=5). All animals were intranasally challenged with RSV on Day 0 at a challenge dosage of […] pfu (50 μL) per animal. Administration began 1 h after Day 0 challenge; the polypeptide sample, positive control, and solvent control were administered via tracheal nebulization once daily for 5 consecutive days. Lung tissue was collected from all animals 2 h after the final administration on Day 4. Left lung tissue (including partial trachea) was rapidly frozen in a virus protection solution with a 10-fold volume and stored below −70° C.; and the viral titer was detected with RT-qPCR.
First, sample homogenization and lung tissue RNA extraction were performed, and the supernatant was taken from the tissue sample that was homogenized using a tissue homogenizer (maintaining a low-temperature environment). The approximately 100 μL of the homogenate supernatant was taken, and total tissue RNA was extracted by using a VeZol reagent-chloroform-water phase-magnetic bead method, and dissolved in RNase-free water. The RT-qPCR reaction system was prepared as follows: a one-step RT-qPCR reaction system was prepared by using an RNA template, a probe, a primer pair, an RT-qPCR buffer, and the RNase-free water; each sample was tested in duplicated wells, with each well containing 20 μL of the one-step RT-qPCR reaction system; a quantitative standard curve well (RSV A2 N gene full-length plasmid), a positive quality control well, and a negative quality control well were arranged at the same time. Then, amplification programs were set according to reverse transcription, pre-denaturation, and cyclic amplification, and amplification data was collected by using a real-time fluorescence quantification PCR instrument, and a mean CT value for duplicated wells was calculated. The CT value from the test results for each sample was substituted into a quantitative standard curve to calculate a copy number. A calculation formula for RSV viral load (copy number/gram of lung tissue) was: sample viral load (copy number/gram of lung tissue)=copy number/relative tissue input (g).
One hour after RSV A2 challenge in cotton rats, compounds 13, 14, 17, 19, 20, 21, 26, 27, 28, and 40 were administered via tracheal nebulization once daily for 5 consecutive days; and 2 h after the final administration, lung tissue was collected from all groups for viral titer detection, and results were shown in Table 4.

| Compound | Mean (PFU/g lung) (RSV A2 virus strain [1]) | effect on viral titer in lung tissue (in words) (RSV A2 virus strain [1]) | Nucleic acid load RT-qPCR detection results Log10 mean (copy number/gram of lung tissue) (RSV A2 virus strain [2]) | effect on viral titer in lung tissue (in words) (RSV A2 virus strain [2]) |
| --- | --- | --- | --- | --- |
| CC[C@H](C)[C@H](NC(=O)[C@H](CCCCN)NC(=O)[C@H](CCCCN)NC(=O)[C@H](CC(C)C)NC(=O)[C@H](CO)NC(=O)[C@H](CCC(=O)O)NC(=O)[C@H](CCC(=O)O)NC(=O)[C@@H](NC(=O)[C@H](CCCCN)NC(=O)[C@H](CCCCN)NC(=O)[C@H](CC(N)=O)NC(=O)[C@@H](NC(=O)[C@H](CCC(=O)O)NC(=O)[C@H](CCC(=O)O)NC(=O)[C@@H](NC(=O)[C@H](CCCCN)NC(=O)[C@H](CCCCN)NC(=O)[C@H](CC(=O)O)NC(=O)[C@H](Cc1ccccc1)NC(=O)[C@H](CCC(=O)O)NC(=O)[C@H](CC(=O)O)NC(=O)[C@H](Cc1c[nH]c2ccccc12)NC(C)=O)[C@@H](C)CC)C(C)C)[C@@H](C)CC)C(=O)N[C@@H](CCC(=O)O)C(=O)N[C@@H](CCC(=O)O)C(=O)N[C@@H](CO)C(=O)N[C@@H](CC(=O)O)C(=O)N[C@@H](CCCCN)C(=O)N[C@@H](CCCCN)C(=O)N[C@@H](CC(C)C)C(=O)N[C@@H](CCC(=O)O)C(=O)N[C@@H](C)C(=O)N[C@@H](C)C(=O)N[C@@H](C)C(=O)N[C@@H](CCCCN)C(=O)N[C@@H](CCCCNC(=O)CCC(=O)O[C@H]1CC[C@@]2(C)C(=CC[C@H]3[C@@H]4CC[C@H]([C@H](C)CCCC(C)C)[C@@]4(C)CC[C@@H]32)C1)C(N)=O [Compound 13] (Ac-WDEFDKKIEEVNKKIEESLKKIEESDKKLEAAAKK(Succinyl(4-O-cholesteryl))-NH2) | 5380 PFU/g lung | significantly reduce the viral titer in lung tissue | 7.82 Log10 copy number/gram of lung | significantly reduce the viral titer in lung tissue |
| CC[C@H](C)[C@H](NC(=O)[C@H](CCCCN)NC(=O)[C@H](CCCCN)NC(=O)[C@H](CC(C)C)NC(=O)[C@H](CO)NC(=O)[C@H](CCC(=O)O)NC(=O)[C@H](CCC(=O)O)NC(=O)[C@@H](NC(=O)[C@H](CCCCN)NC(=O)[C@H](CCCCN)NC(=O)[C@H](CC(N)=O)NC(=O)[C@@H](NC(=O)[C@H](CCC(=O)O)NC(=O)[C@H](CCC(=O)O)NC(=O)[C@@H](NC(=O)[C@H](CCCCN)NC(=O)[C@H](CCCCN)NC(=O)[C@H](CC(=O)O)NC(=O)[C@H](Cc1ccccc1)NC(=O)[C@H](CCC(=O)O)NC(=O)[C@H](CC(=O)O)NC(=O)[C@H](CO)NC(C)=O)[C@@H](C)CC)C(C)C)[C@@H](C)CC)C(=O)N[C@@H](CCC(=O)O)C(=O)N[C@@H](CCC(=O)O)C(=O)N[C@@H](CO)C(=O)N[C@@H](CC(=O)O)C(=O)N[C@@H](CCCCN)C(=O)N[C@@H](CCCCN)C(=O)N[C@@H](CC(C)C)C(=O)NCC(=O)N[C@@H](CO)C(=O)NCC(=O)N[C@@H](CO)C(=O)NCC(=O)N[C@@H](CCCCNC(=O)CCC(=O)O[C@H]1CC[C@@]2(C)C(=CC[C@H]3[C@@H]4CC[C@H]([C@H](C)CCCC(C)C)[C@@]4(C)CC[C@@H]32)C1)C(N)=O [Compound 20] (Ac-SDEFDKKIEEVNKKIEESLKKIEESDKKLGSGSGK(Succinyl(4-O-cholesteryl))-NH2) | 8928 PFU/g lung | significantly reduce the viral titer in lung tissue | 8.55 Log10 copy number/gram of lung | significantly reduce the viral titer in lung tissue |
| CC[C@H](C)[C@H](NC(=O)[C@H](CO)NC(=O)[C@H](C)NC(=O)[C@H](CC(=O)O)NC(=O)[C@H](Cc1ccccc1)NC(=O)[C@H](CCC(=O)O)NC(=O)[C@H](CC(=O)O)NC(C)=O)C(=O)N[C@@H](CO)C(=O)N[C@@H](CCC(N)=O)C(=O)N[C@H](C(=O)N[C@@H](CC(N)=O)C(=O)N[C@@H](CCC(=O)O)C(=O)N[C@@H](CCCCN)C(=O)N[C@H](C(=O)N[C@@H](CC(N)=O)C(=O)N[C@@H](CCC(N)=O)C(=O)N[C@@H](CO)C(=O)N[C@@H](CC(C)C)C(=O)N[C@@H](CCC(=O)O)C(=O)N[C@@H](CCC(=O)O)C(=O)N[C@H](C(=O)N[C@@H](CCCNC(=N)N)C(=O)N[C@@H](CCCCN)C(=O)N[C@@H](CO)C(=O)N[C@@H](CC(=O)O)C(=O)N[C@@H](CCC(=O)O)C(=O)N[C@@H](CC(C)C)C(=O)N[C@@H](CC(C)C)C(=O)N[C@@H](Cc1c[nH]cn1)C(=O)N[C@@H](CC(N)=O)C(=O)N[C@@H](CCC(=O)O)C(=O)N[C@@H](C)C(=O)N[C@@H](C)C(=O)N[C@@H](C)C(=O)N[C@@H](CCCCN)C(=O)N[C@@H](CCCCNC(=O)CCC(=O)O[C@H]1CC[C@@]2(C)C(=CC[C@H]3[C@@H]4CC[C@H]([C@H](C)CCCC(C)C)[C@@]4(C)CC[C@@H]32)C1)C(N)=O)[C@@H](C)CC)[C@@H](C)CC)C(C)C [Compound 28] (Ac-DEFDASISQVNEKINQSLEEIRKSDELLHNEAAAKK(Succinyl(4-O-cholesteryl))-NH2) | 8425 PFU/g lung | significantly reduce the viral titer in lung tissue | 7.76 Log10 copy number/gram of lung | significantly reduce the viral titer in lung tissue |
